The values that follow are results of earlier work, collected in paper PMC6017028 (Molecules : A Journal of Synthetic Chemistry and Natural …, 2018).

On the set-up of this series: method as in PMID 17531180. The settings on record: weak organic acid; cited from earlier work.

Turning to `O=c1[nH]c(=O)c2[nH]c(=O)[nH]c2[nH]1` [Uric acid], the pKa (usually the negative logarithm of the acid dissociation constant) is 5.75.
